Reference: ChEMBL document CHEMBL3877286, “Green fluorescent protein chromophore derivatives as a new class of aldose reductase inhibitors” (Eur J Med Chem, 2017)

Tests used:
[1] = target: T1, Aldo-keto reductase family 1 member B1 (Homo sapiens, UniProt P15121); assay: Inhibition of recombinant human ALR2 assessed as reduction in NADPH oxidation measured for 5 mins in presence of D,L-glyceraldehyde by spectrophotometric method
[2] = target: T1, Aldo-keto reductase family 1 member B1; assay: Potency index, ratio of sorbinil IC50 to compound IC50 for recombinant human ALR2
[3] = target: T1, Aldo-keto reductase family 1 member B1; assay: Inhibition of recombinant human ALR2 assessed as reduction in NADPH oxidation at 13 uM measured for 5 mins in presence of D,L-glyceraldehyde by spectrophotometric method relative to control

IC50 [1] [nM]	Ratio IC50 [2]	inhibition [3] [%]	Structure (SMILES)
540	–	–	CC1=N/C(=C\c2cccc3ccccc23)C(=O)N1CC(=O)O
10700	–	–	CC1=N/C(=C\c2ccc(O)cc2)C(=O)N1CCC(=O)O
510	–	–	COc1ccc(/C=C2\N=C(C)N(CC(=O)O)C2=O)cc1
3200	–	–	CC1=N/C(=C\c2cccc(O)c2)C(=O)N1CC(=O)O
112000	–	–	CCOC(=O)CN1C(=O)/C(=C/c2ccccc2)N=C1C
240	–	–	CC1=N/C(=C\c2ccc(Br)cc2)C(=O)N1CC(=O)O
109000	–	–	CCOC(=O)COc1ccc(/C=C2\N=C(C)N(CC(=O)OCC)C2=O)cc1
270	–	–	CC1=N/C(=C\c2ccc(Cl)cc2)C(=O)N1CC(=O)O
310	–	–	CC1=N/C(=C\c2ccc(OCC(=O)O)cc2)C(=O)N1CC(=O)O
580	–	–	CC1=N/C(=C\c2ccccc2)C(=O)N1CC(=O)O
360	6	–	CC1=N/C(=C\c2ccc(O)cc2)C(=O)N1CC(=O)O
–	–	16	CCOC(=O)CN1C(=O)/C(=C/c2ccc(Cl)cc2)N=C1C
100	–	–	CC1=N/C(=C\c2ccc3ccccc3c2)C(=O)N1CC(=O)O
130	–	–	CC1=N/C(=C\c2cc(C)c(O)c(C)c2)C(=O)N1CC(=O)O
650	–	–	CC1=N/C(=C\c2ccc(F)cc2)C(=O)N1CC(=O)O
23000	–	–	CCOC(=O)CN1C(=O)/C(=C/c2ccc(O)cc2)N=C1C
